Holding throughout (test): relative viability (nuclei count vs DMSO), 5 days (fraction); higher = more cells survive
Compound in experiment [1]: C1CNCCC1C2=CC(=NN2)C3=CC=NC=C3 + N=C(N)NC(=N)NCCc1ccccc1 [Phenformin] (partner 250 µM)
In a few lines: (§1)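 Lung cancer cell lines were pin-tool dosed in 1536-well plates on the day after seeding, with either a lone drug or a fixed anchor-drug dose plus five library-drug doses (not always all listed) in √10 steps. Nuclei were counted on 4× images after 5 days. Relative viability is the ratio of treated-well to vehicle-well nuclei counts, with each value a median of duplicate plates.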

Compound in experiment [2]: C[C@@H](N)c1ccc(C(=O)Nc2ccnc3[nH]ccc23)cc1 + CCNC(=O)c1noc(-c2cc(C(C)C)c(O)cc2O)c1-c1ccc(CN2CCOCC2)cc1 [Luminespib] (partner 0.01 µM)
The method, boiled down: as §1

Compound in experiment [3]: C[C@@H](N)c1ccc(C(=O)Nc2ccnc3[nH]ccc23)cc1 + C[C@@H](Oc1cc(-c2cnn(C3CCNCC3)c2)cnc1N)c1c(Cl)ccc(F)c1Cl [Crizotinib] (partner 1 µM)
In a few lines:
as §1

Compound in the experiment “Tanzisertib + Lapatinib”: O[C@H]1CC[C@H](Nc2ncc3nc(Nc4c(F)cc(F)cc4F)n([C@H]4CCOC4)c3n2)CC1 [Tanzisertib] + CS(=O)(=O)CCNCc1ccc(-c2ccc3ncnc(Nc4ccc(OCc5cccc(F)c5)c(Cl)c4)c3c2)o1 [Lapatinib] (partner 2 µM)
The method, boiled down: as §1

For three cell lines, relative viability results are on record in the supplement of paper PMC10307832.

In the case of SK-LU-1, the relative viability in experiment [1] (first compound 0.08 µM) turned out to be 0.498; in experiment [1] (first compound 0.8 µM), 0.41; in experiment [1] (first compound 2.53 µM), 0.529; in experiment [1] (first compound 8 µM), 0.57; in experiment [2] (first compound 0.04 µM) it was 0.229; in experiment [2] (first compound 0.1265 µM), 0.208. The relative viability in experiment [2] (first compound 0.4 µM) was found to be 0.187; in experiment [2] (first compound 1.265 µM), 0.176; in experiment [2] (first compound 4 µM) it was 0.163; in experiment [3] (first compound 0.04 µM), 0.926; in experiment [3] (first compound 0.1265 µM), 0.964; in experiment [3] (first compound 0.4 µM), 0.779. In addition, the relative viability in experiment [3] (first compound 1.265 µM) is 0.757; in experiment [3] (first compound 4 µM) it was 0.5; in the experiment with Tanzisertib + Lapatinib (first compound 0.08 µM), 1.1; in the experiment with Tanzisertib + Lapatinib (first compound 0.253 µM), 0.869; with Tanzisertib + Lapatinib (first compound 0.8 µM), 0.855; with Tanzisertib + Lapatinib (first compound 2.53 µM), 0.994. Also, the relative viability with Tanzisertib + Lapatinib (first compound 8 µM) is 0.816.

For the cell line SK-MES-1, the relative viability in experiment [1] (first compound 0.08 µM) was determined as 0.635; in experiment [1] (first compound 0.8 µM) it was 0.68; in experiment [1] (first compound 2.53 µM), 0.634; in experiment [1] (first compound 8 µM), 0.603; in experiment [2] (first compound 0.04 µM), 0.834; in experiment [2] (first compound 0.1265 µM) it was 0.796. Also, the relative viability worked out at 0.752 in experiment [2] (first compound 0.4 µM); 0.585 in experiment [2] (first compound 1.265 µM); 0.714 in experiment [2] (first compound 4 µM); 1.01 in experiment [3] (first compound 0.04 µM); 0.973 in experiment [3] (first compound 0.1265 µM); 0.94 in experiment [3] (first compound 0.4 µM). Further, the relative viability in experiment [3] (first compound 1.265 µM) amounted to 0.798; in experiment [3] (first compound 4 µM) it was 0.757; with Tanzisertib + Lapatinib (first compound 0.08 µM), 0.49; with Tanzisertib + Lapatinib (first compound 0.253 µM) it was 0.438; in the experiment with Tanzisertib + Lapatinib (first compound 0.8 µM) it was 0.455; with Tanzisertib + Lapatinib (first compound 2.53 µM), 0.509. In the experiment with Tanzisertib + Lapatinib (first compound 8 µM), the relative viability was 0.466.

On to SW 1573, for which the relative viability was 0.365 in experiment [1] (first compound 0.8 µM); 0.376 in experiment [1] (first compound 2.53 µM); 0.471 in experiment [1] (first compound 8 µM); 0.311 in experiment [2] (first compound 0.04 µM); 0.37 in experiment [2] (first compound 0.1265 µM); 0.212 in experiment [2] (first compound 0.4 µM). For the same cell line, the relative viability was found to be 0.304 in experiment [2] (first compound 1.265 µM); 0.249 in experiment [2] (first compound 4 µM); 0.792 in experiment [3] (first compound 0.04 µM); 0.816 in experiment [3] (first compound 0.1265 µM); 0.777 in experiment [3] (first compound 0.4 µM); 0.65 in experiment [3] (first compound 1.265 µM). The relative viability was 0.765 in experiment [3] (first compound 4 µM); 0.625 with Tanzisertib + Lapatinib (first compound 0.08 µM); 1.09 with Tanzisertib + Lapatinib (first compound 0.253 µM); 1 in the experiment with Tanzisertib + Lapatinib (first compound 0.8 µM); 1.01 with Tanzisertib + Lapatinib (first compound 2.53 µM); 1.1 with Tanzisertib + Lapatinib (first compound 8 µM).
